Results taken from US9234176B2, “Chemically defined production of cardiomyocytes from pluripotent stem cells” (The Board of Trustees of the Leland Stanford Junior …, priority 2012, dated 2016).

Tests used:
[1] = system: hiPSC; experiment: Analysis of components of defined media for hiPSC cardiac differentiation (contraction score); format: cell-based, human; parameters: 9 components subtracting: cardiac differentiation score / 2 components subtracting: cardiac differentiation score: key: 0: no cardiac differentiation or cell death; +: some contraction; ++: >50% contraction; +++: >75% contraction; conditions: for 21 components subtracting: cardiac differentiation score: a) each of the 21 components of B27 without insulin subtracted one at a time, score of medium lacking the component; for 10 components subtracting: cardiac differentiation score: b) second medium of 10 essential components, each subtracted one at a time; for 9 components subtracting: cardiac differentiation score: c) 9-component medium; for 9 components subtracting: cardiac differentiation score / 6 components subtracting: cardiac differentiation score / 9 components (with 4 at 10x) subtracting: cardiac differentiation score: each component subtracted; for 6 components subtracting: cardiac differentiation score: f) fourth 6-component medium; for 9 components (with 4 at 10x) subtracting: cardiac differentiation score: e) third medium with increased concentrations
Excerpt: Development of a Chemically Defined Cardiac Differentiation Platform. We first generated eleven pluripotent hiPSC lines under chemically defined conditions (FIG. 7) on a chemically synthesized vitronectin peptide substrate, with nonenzymatic passaging (FIG. 8). […] To formulate a chemically defined differentiation protocol, we concentrated on the observation that three unrelated media formations are capable of supporting growth factor-based monolayer cardiac differentiation: RPMI+B27-ins, supplemented StemPro-34, and LI-APEL (Table 5). […] Beginning with the 21 components of B27, we subtracted one component at a time and assessed for continued high efficiency differentiation (Table 6a-c) and also assessed components from two other two media (supplemented StemPro-34 and LI-APEL) that yielded benefits (Table 6d-f). We concluded that hiPSC cardiac differentiation was successful in a media consisting of […]: RPMI 1640 basal medium, L-ascorbic acid 2-phosphate (AA 2-P), and BSA (Table 6g).
Other additions to cardiac differentiation media tested were 10.7 μg/mL recombinant human transferrin, […], 1 μg/mL linoleic acid, 1 μg/mL linolenic acid, 2 ng/mL triiodo-l-thyronine, 2 μg/mL L-carnitine, 1 μg/mL D,L-alpha-tocopherol acetate, 100 ng/mL retinol acetate, 1 μg/mL ethanolamine, 20 ng/mL corticosterone, 9 ng/mL progesterone, 47 ng/mL lipoic acid, 100 ng/mL retinol, 1 μg/mL D,L-alpha-tocopherol, 100 ng/mL biotin, 2.5 ug/mL catalase, 2.5 μg/mL glutathione, 2.5 μg/mL superoxide dismutase, 2 μg/mL L-carnitine, 15 μg/mL D(+)-galactose, 16.1 μg/mL putrescine, 450 μM 1-thioglycerol, 55 μM 2-mercaptoethanol, 64 μg/mL L-ascorbic acid 2-phosphate (all from Sigma-Aldrich).

[2] = system: hPSC; experiment: Directed cardiac differentiation of hPSC in minimal media (Example 1); format: cell-based, human; conditions: for Wnt signaling antagonist effective for cardiac differentiation: at a concentration of 5 μM; for further enhancement of differentiation by pathway inhibitors: small molecule inhibitors at the later stage of differentiation
Protocol: Directed Cardiac Differentiation Procedure. (volumes provided are for a T25 flask; adjust volumes proportionately for larger vessels) Day 0 (day 4 after passage): Aspirate medium, and replace with 5 mL of minimal media (CDM3, D3, D4, or D11) supplemented with 6 uM of CHIR-99021 (CHIR-99021 can be used at 4-15 μM). Place flasks in a regular ambient O2, 5% CO2 incubator. Day 2: 48 h. Aspirate media and replace with 5 mL of minimal media (CDM3, D3, D4, or D11). Day 3: 72 h. Aspirate media and replace with 5 mL of minimal media (CDM3, D3, D4, or D11) supplemented with 0.5 uM C59 (C59 may be used at 0.5-5 μM). Day 5: Aspirate media and replace with 5 mL of minimal media (CDM3, D3, D4, or D11). From day 5 onwards media should be changed every 2 days with minimal media (CDM3, D3, D4, or D11).
From day 0 to day 2 (d0-d2), minimal media (CDM3, D3, D4, or D11) was supplemented with the Wnt signaling agonist CHIR-99021 (6-10 uM 48 h, d0-d2), which triggers canonical Wnt/β-Catenin signaling that leads to the subsequent up-regulation of BMP4 and activin A. Media is then exchanged to non-supplemented minimal media (CDM3, D3, D4, or D11) for 1 day followed by contact with a Wnt signaling antagonist (e.g., C59: 0.5-5 uM, 48 h, d3-d5) for 2 days. At day 5, 7, and 9 minimal media (CDM3, D3, D4, or D11) is exchanged for fresh media, and contraction begins between d7 and d10. At day 11, media is exchanged to a variant of minimal media (CDM3, D3, D4, or D11) without […] that results in the depletion of non-cardiomyocytes due to a lack of glycogen stores. Media was exchanged on day 13 for fresh media lacking glucose. At day 15, media was exchanged for fresh minimal media (CDM3, D3, D4, or D11) (containing glucose).
The presence of cardiomyocytes was verified in a number of different ways, for example: flow cytometry of cells contacted with an antibody specific for a cardiomyocyte marker (TNNT2); imaging of cells stained with antibodies specific for α-Sarcomeric actin (red) and Troponin T (TNNT2); electrophysiological profiling; and evaluating responsiveness to known cardioactive drugs (e.g., Norepinephrine). Assays performed on multiple different cell lines (including several hESC lines and over 30 hiPSC lines) confirmed that the subject methods are highly consistent and highly efficient, as very little variability was observed among the different cell lines.

[3] = d) component at 10 x concentration

Compound: Holo transferrin: B27 component
- 21 components subtracting: cardiac differentiation score [1]: 0
- 10 components subtracting: cardiac differentiation score [1]: 0
- 9 components subtracting: cardiac differentiation score [1]: 0
- 9 components with the addition of: cardiac differentiation score [1, 3]: +
- 6 components subtracting: cardiac differentiation score [1]: +++ (>75% contraction)

Compound: CCCCC/C=C\C/C=C\CCCCCCCC(=O)O [Linoleic acid]
- 21 components subtracting: cardiac differentiation score [1]: 0
- 10 components subtracting: cardiac differentiation score [1]: 0
- 9 components subtracting: cardiac differentiation score [1]: 0
- 9 components with the addition of: cardiac differentiation score [1, 3]: +
- 9 components (with 4 at 10x) subtracting: cardiac differentiation score [1]: 0
- 6 components subtracting: cardiac differentiation score [1]: +++ (>75% contraction)

Compound: CC/C=C\C/C=C\C/C=C\CCCCCCCC(=O)O [Linolenic acid]
- 21 components subtracting: cardiac differentiation score [1]: 0
- 10 components subtracting: cardiac differentiation score [1]: 0
- 9 components subtracting: cardiac differentiation score [1]: 0
- 9 components with the addition of: cardiac differentiation score [1, 3]: +
- 9 components (with 4 at 10x) subtracting: cardiac differentiation score [1]: 0
- 6 components subtracting: cardiac differentiation score [1]: +++ (>75% contraction)

Compound: O=[Se](O)O [Sodium selenite]
- 21 components subtracting: cardiac differentiation score [1]: 0
- 10 components subtracting: cardiac differentiation score [1]: 0
- 9 components subtracting: cardiac differentiation score [1]: 0
- 9 components with the addition of: cardiac differentiation score [1, 3]: +++ (>75% contraction)
- 6 components subtracting: cardiac differentiation score [1]: +++ (>75% contraction)

Compound: Catalase
- 21 components subtracting: cardiac differentiation score [1]: ++ (>50% contraction)

Compound: O=C1[C@H](Cc2ccc(O)cc2)N2C(=O)CCN(C(=O)NCc3ccccc3)[C@H]2CN1Cc1cccc2ccccc12 [ICG-001, (6S,9aS)-6-(4-hydroxybenzyl)-N-benzyl-8-(naphthalen-1-ylmethyl)-4,7-diaxo-hexahydro-2H-pyrazino[1,2-a]pyrimidine-1(6H)-carboxamide]
- Wnt signaling antagonist effective for cardiac differentiation [2]: not found to be effective

Compound: CC(=O)Oc1c(C)c(C)c2c(c1C)CCC(C)(CCCC(C)CCCC(C)CCCC(C)C)O2 [D,L-a-tocopherol acetate]
- 21 components subtracting: cardiac differentiation score [1]: 0
- 10 components subtracting: cardiac differentiation score [1]: 0
- 9 components subtracting: cardiac differentiation score [1]: 0
- 9 components with the addition of: cardiac differentiation score [1, 3]: +++ (>75% contraction)
- 9 components (with 4 at 10x) subtracting: cardiac differentiation score [1]: +++ (>75% contraction)

Compound: C[C@]12CCC(=O)C=C1CC[C@@H]1[C@@H]2[C@@H](O)C[C@@]2(C)[C@H]1CC[C@]2(O)C(=O)CO [Hydrocortisone]
- 9 components with the addition of: cardiac differentiation score ([1]; d) addition of components from the other media formulae of Table 5): +

Compound: N[C@@H](CCC(=O)N[C@@H](CS)C(=O)NCC(=O)O)C(=O)O [Glutathione (reduced)]
- 21 components subtracting: cardiac differentiation score [1]: ++ (>50% contraction)

Compound: CC1=C(/C=C/C(C)=C/C=C/C(C)=C/CO)C(C)(C)CCC1 [Retinol, all trans (vit. A), Retinol, all trans]
- 21 components subtracting: cardiac differentiation score [1]: ++ (>50% contraction)

Compound: NCCCCN [Putrescine]
- 21 components subtracting: cardiac differentiation score [1]: ++ (>50% contraction)

Compound: C[S+]([O-])c1ccc(-c2nc(-c3ccncc3)c(-c3ccc(F)cc3)[nH]2)cc1 (centres unmarked) [SB203580]
- further enhancement of differentiation by pathway inhibitors [2]: did not further enhance the differentiation

Compound: Cc1ccc2nc(NC(=O)CSc3nc4c(c(=O)n3-c3ccccc3)SCC4)sc2c1 [IWP-2, N-(6-Methyl-2-benzothiazoyl)-2-[(3,4,6,7-tetrahydro-4-oxo-3-phenylthieno[3,2-d]pyrimidin-2-yl)thio]-acetamide]
- Wnt signaling antagonist effective for cardiac differentiation [2]: effective

Compound: NC(=O)c1ccc(-c2nc(-c3ccc4c(c3)OCO4)c(-c3ccccn3)[nH]2)cc1 [B8431542]
- further enhancement of differentiation by pathway inhibitors [2]: did not further enhance the differentiation

Compound: N[C@@H](Cc1cc(I)c(Oc2ccc(O)c(I)c2)c(I)c1)C(=O)O [T3 (triiodol-l-thyronine), triiodol-l-thyronine]
- 21 components subtracting: cardiac differentiation score [1]: 0
- 10 components subtracting: cardiac differentiation score [1]: 0
- 9 components subtracting: cardiac differentiation score [1]: 0
- 9 components with the addition of: cardiac differentiation score [1, 3]: +++ (>75% contraction)
- 9 components (with 4 at 10x) subtracting: cardiac differentiation score [1]: +++ (>75% contraction)

Compound: O=C(O)CCCC[C@@H]1CCSS1 (racemic) [Lipoic acid]
- 21 components subtracting: cardiac differentiation score [1]: ++ (>50% contraction)

Compound: O=c1[nH]c(-c2ccc(C(F)(F)F)cc2)nc2c1CSCC2 [XAV939, 3,5,7,8-Tetrahydro-2-[4-(trifluoromethyl)phenyl]-4H-thiopyrano[4,3-d]pyrimidin-4-one]
- Wnt signaling antagonist effective for cardiac differentiation [2]: effective

Compound: C[N+](C)(C)C[C@H](O)CC(=O)[O-] [L-carnitine]
- 21 components subtracting: cardiac differentiation score [1]: 0
- 10 components subtracting: cardiac differentiation score [1]: 0
- 9 components subtracting: cardiac differentiation score [1]: 0
- 9 components with the addition of: cardiac differentiation score [1, 3]: 0

Compound: Cc1c(C)c2c(c(C)c1O)CCC(C)(CCCC(C)CCCC(C)CCCC(C)C)O2 [D,L-a-tocopherol (vit E), D,L-a-tocopherol]
- 21 components subtracting: cardiac differentiation score [1]: ++ (>50% contraction)

Compound: c1ccc2c(-c3cnn4cc(-c5ccc(N6CCNCC6)cc5)cnc34)ccnc2c1 [LDN193189]
- further enhancement of differentiation by pathway inhibitors [2]: did not further enhance the differentiation

Compound: c1ccc(-c2[nH]ncc2-c2ccnc3ccccc23)nc1 [LY364947]
- further enhancement of differentiation by pathway inhibitors [2]: did not further enhance the differentiation

Compound: NCCO [Ethanolamine]
- 21 components subtracting: cardiac differentiation score [1]: ++ (>50% contraction)

Compound: COc1ccccc1-n1c(SCC(=O)Nc2nc3ccc(C)cc3s2)nc2c(c1=O)SCC2 [IWP-4, 2-(3,4,6,7-tetrahydro-3-(2-methoxyphenyl)-4-oxothieno[3,2-d]pyrimidin-2-ylthio)-N-(6-methylbenzo[d]thiazol-2-yl)acetamide]
- Wnt signaling antagonist effective for cardiac differentiation [2]: effective

Compound: C[C@]12C[C@H](O)[C@H]3[C@@H](CCC4=CC(=O)CC[C@@]43C)[C@@H]1CC[C@@H]2C(=O)CO [Corticosterone]
- 21 components subtracting: cardiac differentiation score [1]: 0
- 10 components subtracting: cardiac differentiation score [1]: ++ (>50% contraction)

Compound: CC(=O)OC/C=C(C)/C=C/C=C(C)/C=C/C1=C(C)CCCC1(C)C [Retinol acetate (vit A), Retinol acetate]
- 21 components subtracting: cardiac differentiation score [1]: 0
- 10 components subtracting: cardiac differentiation score [1]: 0
- 9 components subtracting: cardiac differentiation score [1]: 0
- 9 components with the addition of: cardiac differentiation score [1, 3]: +++ (>75% contraction)
- 9 components (with 4 at 10x) subtracting: cardiac differentiation score [1]: +++ (>75% contraction)

Compound: CC(=O)[C@H]1CC[C@H]2[C@@H]3CCC4=CC(=O)CC[C@]4(C)[C@H]3CC[C@]12C [Progesterone]
- 21 components subtracting: cardiac differentiation score [1]: ++ (>50% contraction)

Compound: O=C(O)CCCC[C@@H]1SC[C@@H]2NC(=O)N[C@@H]21 [Biotin (vit B7), Biotin]
- 21 components subtracting: cardiac differentiation score [1]: ++ (>50% contraction)

Compound: O=C[C@H](O)[C@@H](O)[C@@H](O)[C@H](O)CO [D(+)-galactose]
- 21 components subtracting: cardiac differentiation score [1]: ++ (>50% contraction)
